How the values were obtained:
[1] = test system: rat model for lower back pain (L5 spinal root loosely ligated with chromic gut); assay: Gross pathological inspection of injured nerve roots following euthanasia; type: in vivo; settings: methotrexate-treated groups (A, D and F) compared to saline-treated groups (B and E)
Procedure: In all groups except the sham-operated animals (Group C), the treated nerve roots were encapsulated with dense granulation tissue and fibrous adhesions.
(§1) Male Holtzman rats (200-250 g) were used. All surgical procedures were performed under inhalation anesthesia (induced at 4% and maintained at 2% halothane in 100% O2). Spinal root, dorsal root ganglia, and the adjacent dura mater on the left side at L5 were carefully exposed by hemilaminectomy using a surgical microscope. Five 0.3 cm pieces of 4-0 chromic gut ligature were laid adjacent to the root and secured by two loose ligatures of 5-0 chromic gut. The muscle layers and incision were closed with 3-0 silk suture and staples, respectively.
For phase I, three combinations of treatments were investigated. Methotrexate was reconstituted to 10 mg/ml in saline and pH adjusted to 7.4. Group A represented root injury plus methotrexate treatment. Immediately following surgery and prior to incision closure, Group A rats received 1 mg/kg of methotrexate (volume 100 ul/kg) by injecting through a PE-10 catheter through an incision in the exposed dura mater to a position 3 cm central to the incision. […]
Group F represented methotrexate plus saline treatment. […] Gait disturbance and mechanical allodynia were also assessed in these animals at days 2, 4, 7, 9, 11 and 14 (day of euthanization).

[2] = dose without acute neurotoxic effects; Morris et al. 1992; cited from earlier work
[3] = test system: rat model for lower back pain (L5 spinal root loosely ligated with chromic gut); assay: Gait disturbance and hind paw inversion testing after L5 spinal root injury; type: in vivo; settings: phase I
From the text: The first phase of the study investigated three combinations of treatments: 1) Group A—methotrexate administration locally (intrathecally) to the surgical area immediately following surgery, followed by additional methotrexate administration locally at days 2 and 4 post-surgery; 2) Group B—saline administration locally to the surgical area immediately following surgery and at days 2 and 4 post-surgery; and 3) Group C—sham-operated animals that received methotrexate at the same time points. In all animals, gait disturbance and mechanical allodynia were assessed until animals were euthanized 7 days after surgery. […]
as §1
For phase I, three combinations of treatments were investigated. Methotrexate was reconstituted to 10 mg/ml in saline and pH adjusted to 7.4. Group A represented root injury plus methotrexate treatment. […]

[4] = test system: OX-42 and GFAP (glial fibrillary acidic protein); assay: Immunohistochemical analysis of spinal glial activation; type: in vivo, rat; settings: methotrexate-treated groups vs saline-treated groups; L5 spinal cord sections
Procedure: All animals were perfusion fixed for immunohistochemistry. Under deep anesthesia (sodium pentobarbital, 50 mg/kg intraperitoneally) rats were euthanized by transcardiac perfusion. Rats were then perfused with 300 ml phosphate buffered saline (PBS) followed by 500 ml 4% paraformaldehyde in 0.1 M PBS. Following perfusion and laminectomy, the lesioned L5 roots were verified and traced to their site of entry into the spinal cord. Appropriate L5 spinal cord segments were harvested and post fixed for 4 hours in fixative and then cryoprotected 2-3 days in 30% sucrose/PBS at 4° C. The segments were then freeze-mounted in OCT embedding medium on cork blocks for cryostat sectioning.
Optimal dilutions and incubation time periods for each antibody and lot were determined prior to the study. Immunohistochemistry was performed with the avidin-biotin technique on free-floating 20 μm sections. Elimination of the primary antibody was performed in each run as a negative control. Monoclonal antibody OX-42 (labeling the complement receptor-3, CDllb) was used as a microglial marker at a dilution of […]. A rabbit polyclonal antibody to glial fibrillary protein (anti-GFAP, DAKO, Carpintra, Calif.) was used as an astrocytic marker at a dilution of 1:20,000. Five or more sections per animal were prepared from the L5 segments in each run. […]

[5] = test system: rat model for lower back pain (L5 spinal root loosely ligated with chromic gut); assay: Mechanical sensitivity (allodynia) testing with von Frey filaments after L5 spinal root injury; type: in vivo
From the text: The first phase of the study investigated three combinations of treatments: 1) Group A—methotrexate administration locally (intrathecally) to the surgical area immediately following surgery, followed by additional methotrexate administration locally at days 2 and 4 post-surgery; 2) Group B—saline administration locally to the surgical area immediately following surgery and at days 2 and 4 post-surgery; and 3) Group C—sham-operated animals that received methotrexate at the same time points. In all animals, gait disturbance and mechanical allodynia were assessed until animals were euthanized 7 days after surgery.
In the second phase of the study, animals were assessed out to day 14 post-surgery and given additional treatments as follows: 1) Group D—surgically prepared, saline treated rats were then given methotrexate locally during the second week of the study on days 7, 9, and 11 post-surgery; 2) Group E—surgically prepared, saline treated rats were then given saline locally during the second week on days 7, 9, and 11 post-surgery; and 3) Group F—surgically prepared, methotrexate treated rats were then given saline during the second week on days 7, 9, and 11 post-surgery. Gait disturbance and mechanical allodynia were assessed before surgery and at days 2, 4, 7, 9, 11, and 14 until euthanization.
as §1
For phase I, three combinations of treatments were investigated. Methotrexate was reconstituted to 10 mg/ml in saline and pH adjusted to 7.4. Group A represented root injury plus methotrexate treatment. Immediately following surgery and prior to incision closure, Group A rats received 1 mg/kg of methotrexate (volume 100 ul/kg) by injecting through a PE-10 catheter through an incision in the exposed dura mater to a position 3 cm central to the incision. The PE-10 catheter was pulled out and the same dose and volume of methotrexate (1 mg/kg) was administered around the injured nerve roots (total dose 2 mg/kg). The wound was closed. On days 2 and 4 post-surgery, under inhalation anesthesia, methotrexate was again administered by opening the surgical wound and repeating delivery of methotrexate as before.
Group C animals represented sham-operated plus methotrexate treatment. In these animals, the L5 nerve roots were exposed but not injured. Methotrexate was administered using the same dose, protocol, and time points as Group A.
For phase II of the study, the protocol was extended to day 14 with the surgery, delivery method, volume and doses being identical to those of the phase I study. Rats were divided into 3 groups. Group D represented saline plus methotrexate treatment. Saline was administered at the time of surgery and at days 2 and 4 post-surgery. Methotrexate was administered in the second week at days 7, 9 and 11 post-surgery.
Group F represented methotrexate plus saline treatment. In these rats, methotrexate was administered during surgery and at days 2 and 4 post-surgery. Saline was then administered on days 7, 9, and 11 post-surgery. Gait disturbance and mechanical allodynia were also assessed in these animals at days 2, 4, 7, 9, 11 and 14 (day of euthanization).
Animals were tested for 3 days pre-operatively to acclimate to the testing apparatus and the experimenter, and to obtain baseline values. All testing was performed by experimenters blinded to the treatments.

Question: Which “granulation and adhesion around the injured nerve roots” value [1] does the source give for `CN(Cc1cnc2nc(N)nc(N)c2n1)c1ccc(C(=O)N[C@@H](CCC(=O)O)C(=O)O)cc1` [methotrexate, Methotrexate] here?
Answer: markedly decreased

Question: What about the “administered dose (1 mg/kg) as fraction of the maximally tolerated dose for rats” value [2] of the same compound?
Answer: one quarter

Question: And the “postoperative changes in hind paw inversion or gait disturbance” value ([3]; Group A (injury+methotrexate, 1 mg/kg intrathecal + 1 mg/kg perineural at surgery, days 2 and 4) vs Group B (saline))?
Answer: no significant difference

Question: And the “hind paw inversion or gait disturbance” value ([3]; Group C, sham-operated + methotrexate at surgery, days 2 and 4)?
Answer: did not demonstrate any hind paw inversion or gait disturbance

Question: And the “level of glial activation (OX-42, GFAP)” value [4]?
Answer: significant difference

Question: And the “mechanical allodynia, overall conclusion” value ([5]; lower back pain model with radiculopathy, local administration)?
Answer: significantly attenuates

Question: And the mechanical allodynia ([5]; phase I, Group A (injury+methotrexate at surgery, days 2 and 4), toward baseline after peak at day 2, to day 7)?
Answer: significantly reduced

Question: What about the “mechanical allodynia response after surgery” value ([5]; phase I, Group C (sham-operated+methotrexate)) of the same compound?
Answer: minimal (minimal (0-5))

Question: What about the “mechanical allodynia during the second week” value ([5]; phase II, Group D (saline in week 1, methotrexate on days 7, 9, 11), existing allodynia, Group E (saline) persisted) of the same compound?
Answer: significantly decreased

Question: What about the “allodynia at day 7 post-surgery” value ([5]; phase II, Group F (methotrexate at surgery, days 2 and 4) compared to Groups D and E) of the same compound?
Answer: significantly attenuated

Question: And the “allodynic response during the second week” value ([5]; phase II, Group F compared to Group E)?
Answer: significantly lower

— patent US7906514B1, “Animal model and compounds identified via this model for treatment of chronic pain” (Trustees of Dartmouth College, priority 1999, dated 2011)
